Reference: publication PMC6105164 (Cancer Chemotherapy and Pharmacology, 2018)
Entries after “also recorded” stand apart in the source; their conditions may differ.

How the values were obtained:
[1] = tested on: Japanese patients with relapsed/refractory solid tumors; test: Safety: dose-limiting toxicity and adverse events (NCI-CTCAE v.4.0); type: in vivo, human; settings: for Death: first and repeated regimens
From the text: Treatment was immediately terminated at the patient’s request when DLT occurred; the study physician decided that continuation was inappropriate because of AEs; or if the tumor was classified as progressive disease (PD) according to the Response Evaluation Criteria in Solid Tumor (RECIST) Guideline. In cases of DLT, patients were allowed to continue the regimen with dose adjustments upon providing written agreement.
Patients were registered when up to three patients received ≥ 60% of planned treatment in the regimen before DLT was evaluated for dose escalation. […] According to the DLT and pharmacokinetics data obtained by a given time, the recommended dose was determined and additional three patients were added to the dosing group a posteriori.
To evaluate the safety, vital signs (systolic and diastolic blood pressure, pulse rate, body temperature, and body weight), 12-lead electrocardiogram, clinical laboratory tests, chest X-ray, and performance status [Eastern Cooperative Oncology Group (ECOG)] were evaluated on predefined dates (Supplemental Table S1). Examined items in the clinical laboratory tests are listed in Supplemental Table S2.
AEs were graded in accordance with NCI-CTCAE v.4.0 and recorded. The study physicians determined whether the AEs were drug-related and recorded.

[2] = tested on: patients with KRAS mutations; settings: previous phase II trial; cited from earlier work
[3] = Urine concentration of Salirasib (LC-MS/MS), day 1; type: in vivo, human; settings: within 24 h, any dosing group (200, 600, 1000 mg sampled)
Protocol: Blood samples were collected 10 times on day 1 (before drug administration, and 0.5-, 1-, 1.5-, 2-, 4-, 6-, 8-, 12-, and 24-h post-administration), once on days 4, 7, and 14, and 9 times on day 21 (before morning dose, and 0.5, 1, 1.5, 2, 4, 6, 8, and 12 h after morning dose but before evening dose). Urine samples were collected from patients who received 200, 600, or 1000 mg on day 1 (before drug administration, and 0–6-, 6–12-, 12–24-h post-administration).

[4] = tested on: relapsed/refractory solid tumors; test: Exploratory evaluation of efficacy (RECIST); type: in vivo, human; settings: for Number of cycles completed, Median / Number of cycles completed, Range: completed = ≥ 60% of planned treatment
From the text: Treatment was immediately terminated at the patient’s request when DLT occurred; the study physician decided that continuation was inappropriate because of AEs; or if the tumor was classified as progressive disease (PD) according to the Response Evaluation Criteria in Solid Tumor (RECIST) Guideline. In cases of DLT, patients were allowed to continue the regimen with dose adjustments upon providing written agreement. At the end of the regimen, patients were allowed to repeat the same regimen if all of the following criteria were met: no DLT occurred; the tumor was not determined as PD; the study physicians agreed; and the patient provided written informed consent. […] Diagnostic imaging using computed tomography, magnetic resonance imaging (MRI), fluorodeoxyglucose-positron emission tomography (PET), and/or bone scintigraphy was performed depending on the tumors and clinical symptoms on day 22 of first and repeated regimens or at discontinuation. Specific tumor markers (e.g., carcinoembryonic antigen for colorectal cancer and prostate-specific antigen for prostate cancer) were measured on day 22 of first and repeated regimens or at discontinuation. Based on the information obtained, the efficacy was scored in accordance with the RECIST guideline.

RAS-mutated patients = settings: previous phase I/II trials in the USA; cited from earlier work
[5] = 800 mg twice-daily, for one patient days until withdrawal were counted
[6] = 800 mg twice-daily, two patients not evaluated
[7] = patients with KRAS mutations (4 patients)

Compound: CC(C)=CCC/C(C)=C/CC/C(C)=C/CSc1ccccc1C(=O)O [Salirasib, S-trans, trans-farnesylthiosalicylic acid]
- Death ([1]; 100 mg twice-daily): 0 (0.0) N (%)
- Death ([1]; 200 mg twice-daily): 0 (0.0) N (%)
- Death ([1]; 400 mg twice-daily): 0 (0.0) N (%)
- Death ([1]; 600 mg twice-daily): 0 (0.0) N (%)
- Death ([1]; 800 mg twice-daily): 0 (0.0) N (%)
- Death ([1]; 1000 mg twice-daily): 0 (0.0) N (%)
- Death ([1]; Total, all dose groups): 0 (0.0) N (%)
- deaths during the treatment period, in words ([1]; all dose groups): No patients died
- AEs observed at grade ≥ 3: ALP increased ([1]; human, in vivo): 3 (14.3) N (%)
- AEs observed at grade ≥ 3: AST increased ([1]; human, in vivo): 1 (4.8) N (%)
- AEs observed at grade ≥ 3: Amylase increased ([1]; human, in vivo): 1 (4.8) N (%)
- AEs observed at grade ≥ 3: Anemia ([1]; human, in vivo): 2 (9.5) N (%)
- AEs observed at grade ≥ 3: Ascites ([1]; human, in vivo): 1 (4.8) N (%)
- AEs observed at grade ≥ 3: Bilirubin increased ([1]; human, in vivo): 1 (4.8) N (%)
- AEs observed at grade ≥ 3: Cancer pain ([1]; human, in vivo): 1 (4.8) N (%)
- AEs observed at grade ≥ 3: Cholestatic jaundice ([1]; human, in vivo): 1 (4.8) N (%)
- AEs observed at grade ≥ 3: Decreased appetite ([1]; human, in vivo): 1 (4.8) N (%)
- AEs observed at grade ≥ 3: Diarrhea ([1]; human, in vivo): 2 (9.5) N (%)
- AEs observed at grade ≥ 3: Hemoglobin decreased ([1]; human, in vivo): 2 (9.5) N (%)
- AEs observed at grade ≥ 3: Hypercalcemia ([1]; human, in vivo): 1 (4.8) N (%)
- AEs observed at grade ≥ 3: Hyponatremia ([1]; human, in vivo): 2 (9.5) N (%)
- AEs observed at grade ≥ 3: Hypophosphatemia ([1]; human, in vivo): 1 (4.8) N (%)
- AEs observed at grade ≥ 3: Lymphopenia ([1]; human, in vivo): 1 (4.8) N (%)
- AEs observed at grade ≥ 3: Troponin T increased ([1]; human, in vivo): 1 (4.8) N (%)
- AEs observed at grade ≥ 3: γ-GTP increased ([1]; human, in vivo): 3 (14.3) N (%)
- AEs observed in ≥ 3 patients: Abdominal pain ([1]; human, in vivo): 6 (28.6) N (%)
- AEs observed in ≥ 3 patients: Decreased appetite ([1]; human, in vivo): 9 (42.9) N (%)
- AEs observed in ≥ 3 patients: Diarrhea ([1]; human, in vivo): 18 (85.7) N (%)
- AEs observed in ≥ 3 patients: Nausea ([1]; human, in vivo): 6 (28.6) N (%)
- AEs observed in ≥ 3 patients: Vomiting ([1]; human, in vivo): 4 (19.0) N (%)
- All AEs ([1]; human, in vivo): 21 (100) N (%)
- All drug-related AEs ([1]; human, in vivo): 19 (90.5) N (%)
- Discontinuation because of AEs ([1]; human, in vivo): 0 (0.0) N (%)
- Discontinuation because of drug-related AEs ([1]; human, in vivo): 0 (0.0) N (%)
- Dose-limiting toxicity (DLT) ([1]; human, in vivo): 0 (0.0) N (%)
- Patients with AEs of grade ≥ 3 ([1]; human, in vivo): 9 (42.9) N (%)
- Patients with drug-related AEs of grade ≥ 3 ([1]; human, in vivo): 4 (19.0) N (%)
- Serious AEs ([1]; human, in vivo): 1 (4.8) N (%)
- Serious drug-related AEs ([1]; human, in vivo): 0 (0.0) N (%)
- patients in whom AEs were observed ([1]; human, in vivo): 21 patients
- dose considered safe and tolerable ([1]; human, in vivo, 28 days): up to 1000 mg
- AEs of grade ≥ 3, in words ([1]; in vivo): not observed
- Dose-limiting toxicity (DLT), in words ([1]; in vivo): no DLT was observed
- maximum tolerable dose ([1]; in vivo): No maximum tolerable dose was discerned
- patients with drug-related AEs, in words ([1]; in vivo): in all patients except two
- serious AE, in words ([1]; in vivo): One serious AE (ascites)
- partial response (PR) [2]: no patients achieved PR
- excretion in urine [3]: not excreted in urine
- Disease control rate (DCR): CR + PR + SD ([4]; 100 mg twice-daily): 1 (33.3) N (%)
- Objective response rate (ORR): CR + PR ([4]; 100 mg twice-daily): 0 (0.0) N (%)
- Progression-free survival, Median ([4]; 100 mg twice-daily): 22 days
- Progression-free survival, Range ([4]; 100 mg twice-daily): 16 to 53 days
- Response rate: Complete response (CR) ([4]; 100 mg twice-daily): 0 (0.0) N (%)
- Response rate: Partial response (PR) ([4]; 100 mg twice-daily): 0 (0.0) N (%)
- Response rate: Progressive disease (PD) ([4]; 100 mg twice-daily): 2 (66.7) N (%)
- Number of cycles completed, Median ([4]; 100 mg twice-daily): 1
- Number of cycles completed, Range ([4]; 100 mg twice-daily): 1–2
- Disease control rate (DCR): CR + PR + SD ([4]; 200 mg twice-daily): 3 (100.0) N (%)
- Objective response rate (ORR): CR + PR ([4]; 200 mg twice-daily): 0 (0.0) N (%)
- Progression-free survival, Median ([4]; 200 mg twice-daily): 213 days
- Progression-free survival, Range ([4]; 200 mg twice-daily): 57 to 373 days
- Response rate: Complete response (CR) ([4]; 200 mg twice-daily): 0 (0.0) N (%)
- Response rate: Partial response (PR) ([4]; 200 mg twice-daily): 0 (0.0) N (%)
- Response rate: Progressive disease (PD) ([4]; 200 mg twice-daily): 0 (0.0) N (%)
- Number of cycles completed, Median ([4]; 200 mg twice-daily): 7
- Number of cycles completed, Range ([4]; 200 mg twice-daily): 2–13
- Disease control rate (DCR): CR + PR + SD ([4]; 400 mg twice-daily): 2 (66.7) N (%)
- Objective response rate (ORR): CR + PR ([4]; 400 mg twice-daily): 0 (0.0) N (%)
- Progression-free survival, Median ([4]; 400 mg twice-daily): 56 days
- Progression-free survival, Range ([4]; 400 mg twice-daily): 22 to 91 days
- Response rate: Complete response (CR) ([4]; 400 mg twice-daily): 0 (0.0) N (%)
- Response rate: Partial response (PR) ([4]; 400 mg twice-daily): 0 (0.0) N (%)
- Response rate: Progressive disease (PD) ([4]; 400 mg twice-daily): 1 (33.3) N (%)
- Number of cycles completed, Median ([4]; 400 mg twice-daily): 2
- Number of cycles completed, Range ([4]; 400 mg twice-daily): 1–3
- Disease control rate (DCR): CR + PR + SD ([4]; 600 mg twice-daily): 2 (66.7) N (%)
- Objective response rate (ORR): CR + PR ([4]; 600 mg twice-daily): 0 (0.0) N (%)
- Progression-free survival, Median ([4]; 600 mg twice-daily): 135 days
- Progression-free survival, Range ([4]; 600 mg twice-daily): 79 to 319 days
- Response rate: Complete response (CR) ([4]; 600 mg twice-daily): 0 (0.0) N (%)
- Response rate: Partial response (PR) ([4]; 600 mg twice-daily): 0 (0.0) N (%)
- Response rate: Progressive disease (PD) ([4]; 600 mg twice-daily): 1 (33.3) N (%)
- Number of cycles completed, Median ([4]; 600 mg twice-daily): 5
- Number of cycles completed, Range ([4]; 600 mg twice-daily): 3–11
- Number of cycles completed, Median ([4]; 800 mg twice-daily): 1
- Number of cycles completed, Range ([4]; 800 mg twice-daily): 1–11
- Progression-free survival, Median [4, 5]: 29 days
- Progression-free survival, Range [4, 5]: 22 to 307 days
- Disease control rate (DCR): CR + PR + SD [4, 6]: 1 (16.7) N (%)
- Objective response rate (ORR): CR + PR [4, 6]: 0 (0.0) N (%)
- Response rate: Complete response (CR) [4, 6]: 0 (0.0) N (%)
- Response rate: Partial response (PR) [4, 6]: 0 (0.0) N (%)
- Response rate: Progressive disease (PD) [4, 6]: 3 (50.0) N (%)
- Disease control rate (DCR): CR + PR + SD ([4]; 1000 mg twice-daily): 1 (33.3) N (%)
- Objective response rate (ORR): CR + PR ([4]; 1000 mg twice-daily): 0 (0.0) N (%)
- Progression-free survival, Median ([4]; 1000 mg twice-daily): 22 days
- Progression-free survival, Range ([4]; 1000 mg twice-daily): 22 to 91 days
- Response rate: Complete response (CR) ([4]; 1000 mg twice-daily): 0 (0.0) N (%)
- Response rate: Partial response (PR) ([4]; 1000 mg twice-daily): 0 (0.0) N (%)
- Response rate: Progressive disease (PD) ([4]; 1000 mg twice-daily): 2 (66.7) N (%)
- Number of cycles completed, Median ([4]; 1000 mg twice-daily): 1
- Number of cycles completed, Range ([4]; 1000 mg twice-daily): 1–3
- Disease control rate (DCR): CR + PR + SD ([4]; Total, all dose groups): 10 (47.6) N (%)
- Objective response rate (ORR): CR + PR ([4]; Total, all dose groups): 0 (0.0) N (%)
- Progression-free survival, Median ([4]; Total, all dose groups): 53 days
- Progression-free survival, Range ([4]; Total, all dose groups): 16 to 373 days
- Response rate: Complete response (CR) ([4]; Total, all dose groups): 0 (0.0) N (%)
- Response rate: Partial response (PR) ([4]; Total, all dose groups): 0 (0.0) N (%)
- Response rate: Progressive disease (PD) ([4]; Total, all dose groups): 9 (42.9) N (%)
- Number of cycles completed, Median ([4]; Total, all dose groups): 2
- Number of cycles completed, Range ([4]; Total, all dose groups): 1–13
- complete response (CR) or partial response (PR), in words ([4]; all patients, during the trial): Neither complete response (CR) nor partial response (PR) was found; also recorded: no patients showed CR or PR
- patients who repeated the regimen ([4]; of 21 patients): 11 patients
- Progression-free survival, Range [4, 7]: 79 to 373 days
- median progression-free survival [4, 7]: 227 days
- number of cycles, median [4, 7]: 8 cycles
- number of cycles, range [4, 7]: 3–13 cycles
- efficacy in RAS-mutated patients (RAS-mutated patients): not conclusive
- tolerability (RAS-mutated patients): good tolerability
